Reference: the supplement of paper PMC11208160

Assay: recombinant UMI read abundance after kanamycin selection (control-corrected) (log10(CPM+1)); higher = more efficient recombination; extreme values may be limits of the assay; sequences stand for … in AGTGCAGAGAAAATCGGCCAGTTTTCTCTGCCTGCAGTCCGCATGCCGTGGGACCCCTTGGGTTCTAACCTGTTGCCTAGATTTATGCAGCGGACTGCCTTTCTCCCAAAGTGATAAACCGG…AGGTTGGTTTCACT; site = the 11-nt donor
How it was run: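 In Escherichia coli, a pool of donor and donor-binding-loop pairs, each with a 12-nt UMI, was tested for the IS621 bridge recombinase. Plating was on IPTG (0.07 mM) plus kanamycin, or without selection, in two replicates. Recombinant UMIs were amplified by PCR across the donor–target junction and sequenced, and counts were reported as log10(CPM+1) after averaging and control-derived scaling.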
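Note: IS621 bridge recombinase in Escherichia coli cells against a fixed T5 target plasmid.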

Going from “CAACTCCCATGGACCGGTTTTCCCGGTAATCCGTATTTGCT (site CAAGTCCCTAG)” to “CAACTCCCATGGACCGGTTTTCCCGGTAATCCGTATTTGCT (site CAATTCCCTAG)”, the “recombinant UMI read abundance (log10)” value rises from 0.00625 to 0.765.

First: CAACTTTCATGGACCGGTTTTCCCGGTAATCCGTATTTGGT (site CAACTTTCTAC)
Second: CAAGATTCATGGACCGGTTTTCCCGGTAATCCGTATTTGTT (site AAAGATTCTAA)
The “recombinant UMI read abundance (log10)” value of the first is higher: 0.82 for the first, 0 for the second.

Going from “CAAGATTCATGGACCGGTTTTCCCGGTAATCCGTATTTGTT (site CAAGATTCTAA)” to “CAAGATTCATGGACCGGTTTTCCCGGTAATCCGTATTTGTT (site GAAGATTCTAA)”, the “recombinant UMI read abundance (log10)” value falls from 3.22 to 0.

First: CAAGATTCATGGACCGGTTTTCCCGGTAATCCGTATTTGTT (site TAAGATTCTAA)
Second: CAAGCGCCATGGACCGGTTTTCCCGGTAATCCGTATTTGCG (site CAAGCGCCTCA)
The “recombinant UMI read abundance (log10)” value of the first is higher: 0.464 for the first, 0.0343 for the second.

Going from “CAAGCGCCATGGACCGGTTTTCCCGGTAATCCGTATTTGCG (site CAAGCGCCTCC)” to “CAAGCGCCATGGACCGGTTTTCCCGGTAATCCGTATTTGCG (site CAAGCGCCTCG)”, the “recombinant UMI read abundance (log10)” value rises from 0.0171 to 2.05.

Going from “CAAGCGCCATGGACCGGTTTTCCCGGTAATCCGTATTTGCG (site CAAGCGCCTCT)” to “CAAGCGCCATGGACCGGTTTTCCCGGTAATCCGTATTTGTC (site CAAGCGCCTAA)”, the “recombinant UMI read abundance (log10)” value rises from 0.00392 to 0.486.

First: CAAGCGCCATGGACCGGTTTTCCCGGTAATCCGTATTTGTC (site CAAGCGCCTCA)
Second: CAAGCGCCATGGACCGGTTTTCCCGGTAATCCGTATTTGTC (site CAAGCGCCTGA)
The “recombinant UMI read abundance (log10)” value of the first is lower: 0.42 for the first, 2.51 for the second.

Going from “CAAGCGCCATGGACCGGTTTTCCCGGTAATCCGTATTTGTC (site CAAGCGCCTTA)” to “CAAGCGGCATGGACCGGTTTTCCCGGTAATCCGTATTTGTG (site CAAGCGACTCA)”, the “recombinant UMI read abundance (log10)” value rises from 0.529 to 1.37.

First: CAAGCGGCATGGACCGGTTTTCCCGGTAATCCGTATTTGTG (site CAAGCGCCTCA)
Second: CAAGCGGCATGGACCGGTTTTCCCGGTAATCCGTATTTGTG (site CAAGCGGCTCA)
The “recombinant UMI read abundance (log10)” value of the first is lower: 0.00533 for the first, 0.904 for the second.

“CAAGCGGCATGGACCGGTTTTCCCGGTAATCCGTATTTGTG (site CAAGCGTCTCA)” and “CAAGTAACATGGACCGGTTTTCCCGGTAATCCGTATTTGGG (site CAAGTAACTCC)” are within 0.2 log units of each other in “recombinant UMI read abundance (log10)” value: 1.66 for the first, 1.53 for the second.

“CAAGTAACATGGACCGGTTTTCCCGGTAATCCGTATTTGGG (site CAAGTCACTCC)” and “CAAGTAACATGGACCGGTTTTCCCGGTAATCCGTATTTGGG (site CAAGTGACTCC)” are within 0.2 log units of each other in “recombinant UMI read abundance (log10)” value: 0.0125 for the first, 0.0247 for the second.

Compared with “CAAGTAACATGGACCGGTTTTCCCGGTAATCCGTATTTGGG (site CAAGTTACTCC)”, “CAAGTCACATGGACCGGTTTTCCCGGTAATCCGTATTTGCG (site CAAGTCACTCA)” is higher in “recombinant UMI read abundance (log10)” value: 0.237 for the first, 1.27 for the second.

Going from “CAAGTCACATGGACCGGTTTTCCCGGTAATCCGTATTTGCG (site CAAGTCACTCC)” to “CAAGTCACATGGACCGGTTTTCCCGGTAATCCGTATTTGCG (site CAAGTCACTCG)”, the “recombinant UMI read abundance (log10)” value rises from 0.632 to 2.34.

Compared with “CAAGTCACATGGACCGGTTTTCCCGGTAATCCGTATTTGCG (site CAAGTCACTCT)”, “CAAGTCACATGGACCGGTTTTCCCGGTAATCCGTATTTGGG (site AAAGTCACTCC)” is lower in “recombinant UMI read abundance (log10)” value: 1.63 for the first, 0.0232 for the second.

“CAAGTCACATGGACCGGTTTTCCCGGTAATCCGTATTTGGG (site CAAATCACTCC)” and “CAAGTCACATGGACCGGTTTTCCCGGTAATCCGTATTTGGG (site CAACTCACTCC)” are within 0.2 log units of each other in “recombinant UMI read abundance (log10)” value: 0.0224 for the first, 0.177 for the second.

First: CAAGTCACATGGACCGGTTTTCCCGGTAATCCGTATTTGGG (site CAAGACACTCC)
Second: CAAGTCACATGGACCGGTTTTCCCGGTAATCCGTATTTGGG (site CAAGCCACTCC)
The “recombinant UMI read abundance (log10)” value of the first is lower: 0.0192 for the first, 0.239 for the second.

“CAAGTCACATGGACCGGTTTTCCCGGTAATCCGTATTTGGG (site CAAGGCACTCC)” and “CAAGTCACATGGACCGGTTTTCCCGGTAATCCGTATTTGGG (site CAAGTAACTCC)” are within 0.2 log units of each other in “recombinant UMI read abundance (log10)” value: 0.0072 for the first, 0.0617 for the second.

“CAAGTCACATGGACCGGTTTTCCCGGTAATCCGTATTTGGG (site CAAGTCACTAC)” and “CAAGTCACATGGACCGGTTTTCCCGGTAATCCGTATTTGGG (site CAAGTCACTCA)” are within 0.2 log units of each other in “recombinant UMI read abundance (log10)” value: 0.0634 for the first, 0.0308 for the second.

“CAAGTCACATGGACCGGTTTTCCCGGTAATCCGTATTTGGG (site CAAGTCACTCC)” and “CAAGTCACATGGACCGGTTTTCCCGGTAATCCGTATTTGGG (site CAAGTCACTCG)” are within 0.2 log units of each other in “recombinant UMI read abundance (log10)” value: 0.013 for the first, 0 for the second.

Compared with “CAAGTCACATGGACCGGTTTTCCCGGTAATCCGTATTTGGG (site CAAGTCACTCT)”, “CAAGTCACATGGACCGGTTTTCCCGGTAATCCGTATTTGGG (site CAAGTCACTGC)” is lower in “recombinant UMI read abundance (log10)” value: 0.593 for the first, 0 for the second.

“CAAGTCACATGGACCGGTTTTCCCGGTAATCCGTATTTGGG (site CAAGTCACTTC)” and “CAAGTCACATGGACCGGTTTTCCCGGTAATCCGTATTTGGG (site CAAGTCCCTCC)” are within 0.2 log units of each other in “recombinant UMI read abundance (log10)” value: 0.00273 for the first, 0.0287 for the second.

Compared with “CAAGTCACATGGACCGGTTTTCCCGGTAATCCGTATTTGGG (site CAAGTCGCTCC)”, “CAAGTCACATGGACCGGTTTTCCCGGTAATCCGTATTTGGG (site CAAGTCTCTCC)” is higher in “recombinant UMI read abundance (log10)” value: 0.0204 for the first, 0.493 for the second.

“CAAGTCACATGGACCGGTTTTCCCGGTAATCCGTATTTGGG (site CAAGTGACTCC)” and “CAAGTCACATGGACCGGTTTTCCCGGTAATCCGTATTTGGG (site CAAGTTACTCC)” are within 0.2 log units of each other in “recombinant UMI read abundance (log10)” value: 0.0398 for the first, 0.161 for the second.

“CAAGTCACATGGACCGGTTTTCCCGGTAATCCGTATTTGGG (site CAATTCACTCC)” and “CAAGTCACATGGACCGGTTTTCCCGGTAATCCGTATTTGGG (site CACGTCACTCC)” are within 0.2 log units of each other in “recombinant UMI read abundance (log10)” value: 0.0165 for the first, 0 for the second.

“CAAGTCACATGGACCGGTTTTCCCGGTAATCCGTATTTGGG (site CAGGTCACTCC)” and “CAAGTCACATGGACCGGTTTTCCCGGTAATCCGTATTTGGG (site CATGTCACTCC)” are within 0.2 log units of each other in “recombinant UMI read abundance (log10)” value: 0.0212 for the first, 0.0038 for the second.

“CAAGTCACATGGACCGGTTTTCCCGGTAATCCGTATTTGGG (site CCAGTCACTCC)” and “CAAGTCACATGGACCGGTTTTCCCGGTAATCCGTATTTGGG (site CGAGTCACTCC)” are within 0.2 log units of each other in “recombinant UMI read abundance (log10)” value: 0.0443 for the first, 0.00994 for the second.

“CAAGTCACATGGACCGGTTTTCCCGGTAATCCGTATTTGGG (site CTAGTCACTCC)” and “CAAGTCACATGGACCGGTTTTCCCGGTAATCCGTATTTGGG (site GAAGTCACTCC)” are within 0.2 log units of each other in “recombinant UMI read abundance (log10)” value: 0.0139 for the first, 0.0173 for the second.

First: CAAGTCACATGGACCGGTTTTCCCGGTAATCCGTATTTGGG (site TAAGTCACTCC)
Second: CAAGTCGCATGGACCGGTTTTCCCGGTAATCCGTATTTGGT (site CAAGTCGCTAC)
The “recombinant UMI read abundance (log10)” value of the first is lower: 0.0086 for the first, 1.77 for the second.

Compared with “CAAGTGCCATGGACCGGTTTTCCCGGTAATCCGTATTTGTA (site CAAGTGCCTTA)”, “CAAGTTACATGGACCGGTTTTCCCGGTAATCCGTATTTGGG (site CAAGTAACTCC)” is lower in “recombinant UMI read abundance (log10)” value: 1.56 for the first, 0.277 for the second.

Compared with “CAAGTTACATGGACCGGTTTTCCCGGTAATCCGTATTTGGG (site CAAGTCACTCC)”, “CAAGTTACATGGACCGGTTTTCCCGGTAATCCGTATTTGGG (site CAAGTGACTCC)” is lower in “recombinant UMI read abundance (log10)” value: 0.252 for the first, 0.0286 for the second.

First: CAAGTTACATGGACCGGTTTTCCCGGTAATCCGTATTTGGG (site CAAGTTACTCC)
Second: CAATCATCATGGACCGGTTTTCCCGGTAATCCGTATTTGAT (site CAATCATCTAT)
The “recombinant UMI read abundance (log10)” value of the first is higher: 0.861 for the first, 0.435 for the second.

Going from “CAATCATCATGGACCGGTTTTCCCGGTAATCCGTATTTGAT (site CGATCATCTAG)” to “CAATCATCATGGACCGGTTTTCCCGGTAATCCGTATTTGCC (site CAATCATCTGG)”, the “recombinant UMI read abundance (log10)” value rises from 0 to 0.733.

Going from “CAATCATCATGGACCGGTTTTCCCGGTAATCCGTATTTGCC (site CGATCATCTAG)” to “CAATCCTCATGGACCGGTTTTCCCGGTAATCCGTATTTGCC (site CAATCCTCTGG)”, the “recombinant UMI read abundance (log10)” value rises from 0 to 1.54.

Going from “CAATCCTCATGGACCGGTTTTCCCGGTAATCCGTATTTGCC (site CACTCCTCTGG)” to “CAATCCTCATGGACCGGTTTTCCCGGTAATCCGTATTTGCC (site CAGTCCTCTGG)”, the “recombinant UMI read abundance (log10)” value falls from 1.14 to 0.

Going from “CAATCCTCATGGACCGGTTTTCCCGGTAATCCGTATTTGCC (site CATTCCTCTGG)” to “CAATCGGCATGGACCGGTTTTCCCGGTAATCCGTATTTGAC (site CAATCGGCTGT)”, the “recombinant UMI read abundance (log10)” value rises from 0.913 to 1.77.

First: CAATCTCCATGGACCGGTTTTCCCGGTAATCCGTATTTGCC (site CAATCTCCTGG)
Second: CAATGATCATGGACCGGTTTTCCCGGTAATCCGTATTTGAA (site CAATGATCTTT)
The “recombinant UMI read abundance (log10)” value of the first is lower: 0 for the first, 3.01 for the second.

Going from “CAATGATCATGGACCGGTTTTCCCGGTAATCCGTATTTGAA (site CAATGCTCTTT)” to “CAATGATCATGGACCGGTTTTCCCGGTAATCCGTATTTGAA (site CAATGGTCTTT)”, the “recombinant UMI read abundance (log10)” value rises from 0.0913 to 0.41.

With “CAATGATCATGGACCGGTTTTCCCGGTAATCCGTATTTGAA (site CAATGTTCTTT)” the “recombinant UMI read abundance (log10)” value was 0.682.
